Measured values published in US8273775B2, “Non-steroidal brassinosteroid mimetic” (priority 2006, dated 2012).

Tested on: gene expression in Col-0 seedling shoots
Experiment: Microarray analysis (ATH1 Affymetrix) after BL or abrasin treatment
Assay type: in vivo, Arabidopsis
Procedure: FIG. 14: Clustering of gene expression profiles by QT-clust analysis. Clusters illustrating the major patterns of the data sets. Points: BIK-30: 30 μM abrasin 30 min; BL-30: 1 μM brassinolide 30 min; DMSO-30: control DMSO 30 min; BIK-120: 30 μM abrasin 120 min; BL-120: 1 μM brassinolide 120 min; DMSO-120: control DMSO 120 min.
Col-0 seeds were germinated vertically on ½ MS medium for 7 days under 16 h light/8 h dark cycles. The seedlings were overlaid with liquid ½ MS medium containing 1 μM brassinolide (BL, Fuji Chemical Industries, Ltd., Toyama, Japan), 30 μM abrasin (BIK, ChemBridge Corporation) and DMSO and treated for 30 and 120 min. The shoot parts were collected for RNA isolation. All sampling points were performed in three independent experiments. RNA was extracted using RNeasy kit (Qiagene). […] total RNA per array was used to hybridise the ATH1 Affymetrix Arabidopsis arrays according to standard procedure. The overrepresentation analyses were performed using BiNGO software (Maere et al., 2005).
We performed a microarray analysis using the Arabidopsis whole genome chip (Affymetix) to determine whether abrasin activated the expression of BR-inducible genes at transcriptional level. Wild-type Col-0 seedlings were exposed to 1 μM BL, 30 μM ABRASIN and DMSO (mock-treatment) for two time points (30 min and 120 min) and the shoot parts were collected for RNA isolation. The analysis of the variance of the normalized gene expression data took in account the variability parameters affecting the expression level: type of hormone treatment, duration of treatment and the interaction between these two.

Structure (SMILES): O=C(O)CCC(=O)Nc1ccc(Br)cn1 [abrasin, 4-[(5-bromo-2-pyridinyl)amino]-4-oxobutanoic acid]
- Fold-change of gene AT2G42380 (bZIP transcription factor family protein) (30 min, 265877_at, Cluster 6): 1.65
- Fold-change of gene AT2G45080 (cyclin family protein) (30 min, 266124_at, Cluster 8): 0.77
- Fold-change AT1G04330 expressed protein (120 min): 4.41
- Fold-change AT1G05470 endonuclease/exonuclease/phosphatase family protein (120 min): 2.59
- Fold-change AT1G06520 Encodes a membrane associated mitochondrial localized protein (120 min): 2.28
- Fold-change AT1G06570 4-hydroxyphenylpyruvate dioxygenase (HPD) (120 min): 0.29
- Fold-change AT1G10550 xyloglucan:xyloglucosyl transferase (120 min): 1.66
- Fold-change AT1G12710 F-box family protein (120 min): 1.41
- Fold-change AT1G12750 rhomboid family protein (120 min): 1.60
- Fold-change AT1G14130 2-oxoglutarate-dependent dioxygenase (120 min): 2.47
- Fold-change AT1G14700 purple acid phosphatase (120 min): 0.47
- Fold-change AT1G16640 transcriptional factor B3 family protein (120 min): 2.20
- Fold-change AT1G17230 leucine-rich repeat family protein (120 min): 0.22
- Fold-change AT1G18020; AT1G17990 [AT1G18020, 12-oxophytodienoate reductase, (120 min): 1.78
- Fold-change AT1G19320 pathogenesis-related thaumatin family protein (120 min): 0.50
- Fold-change AT1G20350 mitochondrial import inner membrane translocase subunit (120 min): 2.67
- Fold-change AT1G21050 expressed protein (120 min): 0.14
- Fold-change AT1G21760 F-box family protein (120 min): 0.46
- Fold-change AT1G22360 UDP-glucoronosyl/UDP-glucosyl transferase family protein (120 min): 0.32
- Fold-change AT1G23080 auxin efflux carrier protein (PIN7) (120 min): 0.33
- Fold-change AT1G26800 zinc finger (C3HC4-type RING finger) family protein, (120 min): 4.39
- Fold-change AT1G27730 zinc finger (C2H2 type) family protein (120 min): 1.06
- Fold-change AT1G28130 encodes an IAA-amido synthase (120 min): 0.40
- Fold-change AT1G28190 expressed protein (120 min): 1.65
- Fold-change AT1G28480 glutaredoxin family protein (120 min): 3.97
- Fold-change AT1G31040 zinc-binding protein-related (120 min): 4.37
- Fold-change AT1G31310 hydroxyproline-rich glycoprotein family protein (120 min): 2.45
- Fold-change AT1G31770 ABC transporter family protein (120 min): 0.50
- Fold-change AT1G32190 expressed protein (120 min): 0.07
- Fold-change AT1G32690 expressed protein (120 min): 0.26
- Fold-change AT1G36940 expressed protein (120 min): 0.32
- Fold-change AT1G49780 U-box domain-containing protein (120 min): 0.56
- Fold-change AT1G53870; AT1G53890 [AT1G53870, expressed protein (120 min): 0.51
- Fold-change AT1G54050 17.4 kDa class III heat shock protein (HSP17.4-CIII) (120 min): 2.86
- Fold-change AT1G54200 expressed protein (120 min): 2.19
- Fold-change AT1G55920 serine O-acetyltransferase (120 min): 2.16
- Fold-change AT1G57560 myb family transcription factor (MYB50) (120 min): 2.65
- Fold-change AT1G59590 expressed protein (120 min): 2.08
- Fold-change AT1G59660 nucleoporin family proteinmily (120 min): 2.94
- Fold-change AT1G62300 WRKY family transcription factor (120 min): 0.71
- Fold-change AT1G63050 membrane bound O-acyl transferase (MBOAT) family protein (120 min): 0.27
- Fold-change AT1G66160 U-box domain-containing protein, (120 min): 1.91
- Fold-change AT1G66890 expressed protein (120 min): 0.14
- Fold-change AT1G68330 expressed protein (120 min): 2.78
- Fold-change AT1G68810 basic helix-loop-helix (bHLH) family protein (120 min): 0.41
- Fold-change AT1G69160 expressed protein (120 min): 0.33
- Fold-change AT1G70990 proline-rich family protein (120 min): 3.50
- Fold-change AT1G71030 Encodes a putative myb family transcription factor (120 min): 0.46
- Fold-change AT1G72060 expressed protein (120 min): 5.97
- Fold-change AT1G72180 leucine-rich repeat transmembrane protein kinase (120 min): 0.11
- Fold-change AT1G72800 nuM1-related, contains (120 min): 2.15
- Fold-change AT1G75270 dehydroascorbate reductase (120 min): 2.62
- Fold-change AT1G75500 nodulin MtN21 family protein (120 min): 0.37
- Fold-change AT1G76240 expressed protein, (120 min): 0.07
- Fold-change AT1G76410 zinc finger (C3HC4-type RING finger) (120 min): 0.16
- Fold-change AT1G79110 expressed protein (120 min): 0.45
- Fold-change AT1G79630 protein phosphatase 2C family protein (120 min): 0.35
- Fold-change AT1G80440 kelch repeat-containing F-box family protein (120 min): 2.89
- Fold-change AT2G01300 expressed protein (120 min): 3.12
- Fold-change AT2G01990 expressed protein, (120 min): 2.56
- Fold-change AT2G04240 zinc finger (C3HC4-type RING finger) family protein (120 min): 1.72
- Fold-change AT2G05540 glycine-rich protein (120 min): 0.54
- Fold-change AT2G12290; AT4G19700 [AT2G12290, expressed protein]; [AT4G19700, expressed protein] (120 min): 0.53
- Fold-change AT2G18010 auxin-responsive family protein (SAUR10) (120 min): 3.94
- Fold-change AT2G19800 expressed protein (120 min): 2.22
- Fold-change AT2G22860 phytosulfokines 2 (PSK2) (120 min): 0.19
- Fold-change AT2G23180 cytochrome P450, putative (120 min): 0.36
- Fold-change AT2G23320 WRKY family transcription factor (120 min): 1.19
- Fold-change AT2G26530 expressed protein (120 min): 1.99
- Fold-change AT2G26710 cytochrome p450 family (BAS1) (120 min): 2.26
- Fold-change AT2G28510 Dof-type zinc finger domain-containing protein (120 min): 1.19
- Fold-change AT2G29340 short-chain dehydrogenase/reductase (SDR) family protein (120 min): 3.73
- Fold-change AT2G29990 pyridine nucleotide-disulphide oxidoreductase family protein (120 min): 1.38
- Fold-change AT2G30070 potassium transporter (KUP1) (120 min): 0.22
- Fold-change AT2G31230 encodes a member of the ERF (ethylene response factor) (120 min): 3.17
- Fold-change AT2G34650 protein kinase PINOID (PID) (120 min): 2.52
- Fold-change AT2G36220 expressed protein (120 min): 2.76
- Fold-change AT2G37590 Dof-type zinc finger domain-containing protein (120 min): 5.81
- Fold-change AT2G38470 WRKY family transcription factor (120 min): 1.34
- Fold-change AT2G39710 aspartyl protease family protein (120 min): 2.52
- Fold-change AT2G40340; AT2G40350 [AT2G40340, encodes a member of the DREB subfamily A-2 of ERF/AP2 (120 min): 3.20
- Fold-change AT2G41250 haloacid dehalogenase-like hydrolase family protein (120 min): 0.33
- Fold-change AT2G41640 expressed protein (120 min): 2.53
- Fold-change AT2G42280 basic helix-loop-helix (bHLH) family protein (120 min): 0.28
- Fold-change AT2G43060 expressed protein, similar to cDNA bHLH transcription factor (120 min): 0.25
- Fold-change AT2G43280 far-red impaired responsive family protein (120 min): 0.48
- Fold-change AT2G43290 calmodulin-like protein (MSS3) (120 min): 1.45
- Fold-change AT2G44130 kelch repeat-containing F-box family protein (120 min): 7.72
- Fold-change AT2G44500 expressed protein (120 min): 2.19
- Fold-change AT2G45210 auxin-responsive protein-related (120 min): 0.24
- Fold-change AT2G45680 TCP family transcription factor (120 min): 0.46
- Fold-change AT2G46225 Encodes a subunit of the WAVE complex (120 min): 0.58
- Fold-change AT2G47440 DNAJ heat shock N-terminal domain-containing protein (120 min): 1.64
- Fold-change AT3G04210 disease resistance protein (TIR-NBS class), putative, (120 min): 3.17
- Fold-change AT3G09920 phosphatidylinositol-4-phosphate 5-kinase family protein (120 min): 1.07
- Fold-change AT3G12920 expressed protein (120 min): 0.31
- Fold-change AT3G13040 myb family transcription factor (120 min): 0.48
- Fold-change AT3G13510 expressed protein (120 min): 0.42
- Fold-change AT3G13980 expressed protein (120 min): 0.08
- Fold-change AT3G14370 protein kinase family protein (120 min): 2.16
- Fold-change AT3G14560 expressed protein (120 min): 0.35
- Fold-change AT3G16570 rapid alkalinization factor (RALF) family protein (120 min): 0.36
- Fold-change AT3G17860 expressed protein (120 min): 0.45
- Fold-change AT3G18830 polyol/cyclitol/monosaccharide-H+-symporte (120 min): 2.60
- Fold-change AT3G19380 U-box domain-containing protein (120 min): 0.48
- Fold-change AT3G23030 auxin-responsive protein/indoleacetic acid-induced protein 2 (IAA2) (120 min): 0.25
- Fold-change AT3G23550 MATE efflux family protein (120 min): 0.38
- Fold-change AT3G25710 basic helix-loop-helix (bHLH) family protein (120 min): 0.10
- Fold-change AT3G25900 homocysteine S-methyltransferase 1 (HMT-1) (120 min): 2.67
- Fold-change AT3G26910 hydroxyproline-rich glycoprotein family protein (120 min): 1.85
- Fold-change AT3G30180 cytochrome p450 enzyme (120 min): 0.06
- Fold-change AT3G46880 expressed protein, (120 min): 1.51
- Fold-change AT3G47800 aldose 1-epimerase family protein (120 min): 0.57
- Fold-change AT3G48970 copper-binding family protein (120 min): 0.38
- Fold-change AT3G49810 U-box domain-containing protein (120 min): 1.12
- Fold-change AT3G50650 scarecrow-like transcription factor 7 (SCL7) (120 min): 2.48
- Fold-change AT3G50660 steroid 22-alpha-hydroxylase (CYP90B1) (DWF4) (120 min): 0.02
- Fold-change AT3G50750 brassinosteroid signalling positive regulator-related (BEH1) (120 min): 0.31
- Fold-change AT3G52490 heat shock protein-related (120 min): 2.41
- Fold-change AT3G53810 lectin protein kinase (120 min): 2.23
- Fold-change AT3G54950 patatin-related, (120 min): 0.43
- Fold-change AT3G55120 chalcone-flavanone isomerase (120 min): 0.39
- Fold-change AT3G55150 exocyst subunit EXO70 family protein (120 min): 0.48
- Fold-change AT3G55840 expressed protein (120 min): 6.96
- Fold-change AT3G61460 zinc finger (C3HC4-type RING finger) family protein (BRH1) (120 min): 0.32
- Fold-change AT3G63300 expressed protein (120 min): 2.07
- Fold-change AT4G01680 myb family transcription factor (MYB55) (120 min): 0.14
- Fold-change AT4G02410 lectin protein kinase family protein (120 min): 1.55
- Fold-change AT4G08040 1-aminocyclopropane-1-carboxylate synthase, putative (120 min): 0.02
- Fold-change AT4G09460 myb family transcription factor (120 min): 3.27
- Fold-change AT4G12390 invertase/pectin methylesterase inhibitor family protein (120 min): 0.44
- Fold-change AT4G12410 auxin-responsive family protein (120 min): 0.31
- Fold-change AT4G14130 xyloglucan:xyloglucosyl transferase (120 min): 0.02
- Fold-change AT4G15975 zinc finger (C3HC4-type RING finger) family protein (120 min): 3.28
- Fold-change AT4G16146 expressed protein (120 min): 0.49
- Fold-change AT4G16563 aspartyl protease family protein (120 min): 1.65
- Fold-change AT4G16670 expressed protein (120 min): 0.34
